Test results reported in patent US9822113B2, “Tricyclic compounds and process for preparation thereof” (Council of Scientific & Industrial Research, priority 2013, dated 2017).
Converted amounts (≈) assume the structure as drawn.

Tested on: Salmonella enterica strain AMC (ATCC #6539)
Assay: Antibiotic assay: MIC by Promega Bac Titer-Glo microbial cell viability assay
Type: cell-based
Conditions: 24 hours treatment, inoculum ~5×10^4 CFU/mL, Mueller Hinton broth
Description: In a preferred embodiment, the novel a novel tricyclic compounds of formula (I) and formula (II) are evaluated for anti-microbial activity. The minimum inhibitory concentrations (MICs) is determined using the Promega Bac Titer-Glo microbial cell viability assay. The assays is carried out using Salmonella enterica strain AMC (ATCC #6539), Inocula of S. enterica prepared from 12-h broth cultures grown in Mueller Hinton broth and the suspensions were then adjusted to a turbidity of 0.5 McFarland. […] Bacterial cells were treated with hunanamycin analogs for 24 hours at ranges from 0.4 to 40 μg/mL and ciprofloxacin as a control ranging from 0.03 to 10 μg/mL. The OD600 measured using an Envision multi-modal plate reader (Perkin-Elmer, Inc.).
The minimum inhibitory concentrations (MICs) were determined using the Promega Bac Titer-Glo microbial cell viability assay, which measures cell viability by quantitation of ATP present, an indicator of metabolic activity of cells. The assays were carried out using Salmonella enterica strain AMC (ATCC #6539), Inocula of S. enterica were prepared from 12-h broth cultures grown in Mueller Hinton broth and the suspensions were then adjusted to a turbidity of 0.5 McFarland. […] Bacterial cells were treated with hunanamycin analogs for 24 hours at ranges from 0.4 to 40 μg/mL and ciprofloxacin as a control ranging from 0.03 to 10 μg/mL. The OD600 was measured using an Envision multi-modal plate reader (Perkin-Elmer, Inc.). The antibiotic assays were performed in Prof. John B. MacMillan's lab, Department of Biochemistry, University of Texas Southwestern Medical Center at Dallas, USA.

SMILES | MIC
Cc1cc2c3c(c1C)C(C)(C)CCn3c(=O)c(=O)n2C[C@@H](O)[C@H](O)[C@H](O)CO [Compound 3, 7,7,8,9-tetramethyl-1-((2R,3S,4R)-2,3,4,5-tetrahydroxy-pentyl)-6,7-dihydro-1H,5H-pyrido[1,2,3-de]quinoxaline-2,3-dione] | 8 µg/mL (≈ 20.4 µM)
CC1(C)CCn2c(=O)c(=O)n(C[C@@H](O)[C@H](O)[C@H](O)CO)c3cccc1c32 [Compound 8, 7,7-dimethyl-1-((2R,3S,4R)-2,3,4,5-tetrahydroxypentyl)-6,7-dihydro-1H,5H-pyrido[1,2,3-de]quinoxaline-2,3-dione] | >16 µg/mL
CC1(C)CCn2c(=O)n(Cc3cn(CCO)nn3)c3cccc1c32 [Compound 24, 1-((1-(2-hydroxyethyl)-1H-1,2,3-triazol-4-yl)methyl)-6,6-dimethyl-5,6-dihydro-4H-imidazo[4,5,1-ij]quinolin-2(1H)-one] | >16 µg/mL

Same assay, conditions: Salmonella enterica, ATCC6539, 24 h, 24 hours treatment, inoculum ~5×10^4 CFU/mL, Mueller Hinton broth

SMILES | MIC
CC1(C)CCn2c(=O)n(Cc3cn(CCO)nn3)c3cccc1c32 [1-((1-(2-hydroxyethyl)-1H-1,2,3-triazol-4-yl)methyl)-6,6-dimethyl-5,6-dihydro-4H-imidazo[4,5,1-ij]quinolin-2(1H)-one] | 8 µg/mL (≈ 24.4 µM)
CC1(C)CCn2c(=O)c(=O)n(CC(O)CO)c3cccc1c32 (stereo not drawn) [Compound 9, 1-(2,3-dihydroxypropyl)-7,7-dimethyl-6,7-dihydro-1H,5H-pyrido[1,2,3-de]quinoxaline-2,3-dione] | 8 µg/mL (≈ 26.3 µM)
Cc1cc2c3c(c1C)C(C)(C)CCn3c(=O)c(=O)n2C[C@H](O)[C@H](O)[C@H](O)CO (stereo in doubt) [Compound 2, 7,7,8,9-tetramethyl-1-((2S,3S,4R)-2,3,4,5-tetrahydroxypentyl)-6,7-dihydro-1H,5H-pyrido[1,2,3-de]quinoxaline-2,3-dione] | 8 µg/mL (≈ 20.4 µM)
Cc1cc2nc(OC[C@H](O)[C@H](O)[C@H](O)CO)c(=O)n3c2c(c1C)C(C)(C)CC3 [Compound 1, 7,7,8,9-tetramethyl-2-(((2S,3R,4R)-2,3,4,5-tetrahydroxy-pentyl)oxy)-6,7-dihydro-3H,5H-pyrido[1,2,3-de]quinoxalin-3-one] | 8 µg/mL (≈ 20.4 µM)
Cc1cc2c3c(c1C)C(C)(C)CCn3c(=O)c(=O)n2C[C@@H](O)[C@H](O)[C@H](O)CO [7,7,8,9-tetramethyl-1-((2R,3S,4R)-2,3,4,5-tetrahydroxy-pentyl)-6,7-dihydro-1H,5H-pyrido[1,2,3-de]quinoxaline-2,3-dione] | 8 µg/mL (≈ 20.4 µM)

Same assay, conditions: Salmonella enterica, ATCC6539, 24 h, 24 hours treatment, inoculum ~5×10^4 CFU/mL, Mueller Hinton broth, read-out: MIC

SMILES | MIC
CC1(C)CCn2c(=O)c(=O)n(CC(O)C(C)(C)O)c3cccc1c32 (stereo not drawn) [Compound 15, 1-(2,3-dihydroxy-3-methylbutyl)-7,7-dimethyl-6,7-dihydro-1H,5H-pyrido[1,2,3-de]quinoxaline-2,3-dione] | > 16 µg/mL
Cc1cc2c3c(c1C)C(C)(C)CCn3c(=O)c(=O)n2C[C@H](O)[C@H](O)[C@H](O)CO [Compound 2, 7,7,8,9-tetramethyl-1-((2S,3S,4R)-2,3,4,5-tetrahydroxypentyl)-6,7-dihydro-1H,5H-pyrido[1,2,3-de]quinoxaline-2,3-dione] | 8 µg/mL (≈ 20.4 µM)
CC1(C)CCn2c(=O)c(=O)n(C[C@H](O)[C@H](O)[C@H](O)CO)c3cccc1c32 [Compound 7, 7,7-dimethyl-1-((2S,3S,4R)-2,3,4,5-tetrahydroxypentyl)-6,7-dihydro-1H,5H-pyrido[1,2,3-de]quinoxaline-2,3-dione] | > 16 µg/mL
CC1(C)CCn2c(=O)c(OC[C@H](O)[C@H](O)[C@H](O)CO)nc3cccc1c32 [Compound 6, 7,7-dimethyl-2-(((2S,3R,4R)-2,3,4,5-tetrahydroxypentyl)oxy)-6,7-dihydro-3H,5H-pyrido[1,2,3-de]quinoxalin-3-one] | > 16 µg/mL
CCOC(=O)Cn1cc(Cn2c(=O)c(=O)n3c4c(cccc42)C(C)(C)CC3)nn1 [Compound 10, ethyl 2-(4-((7,7-dimethyl-2,3-dioxo-2,3,6,7-tetrahydro-1H,5H-pyrido[1,2,3-de]quinoxalin-1-yl)methyl)-1H-1,2,3-triazol-1-yl)acetate] | > 16 µg/mL
CC(O)C(O)Cn1c(=O)c(=O)n2c3c(cccc31)C(C)(C)CC2 (stereo not drawn) [Compound 14, 1-(2,3-dihydroxybutyl)-7,7-dimethyl-6,7-dihydro-1H,5H-pyrido[1,2,3-de]quinoxaline-2,3-dione] | > 16 µg/mL
CC1(C)CCn2c(=O)c(=O)n(C[C@@H](O)[C@H](O)CO)c3cccc1c32 [Compound 12, 7,7-dimethyl-1-((2R,3R)-2,3,4-trihydroxybutyl)-6,7-dihydro-1H,5H-pyrido[1,2,3-de]quinoxaline-2,3-dione] | > 16 µg/mL
CC1(C)CCn2c(=O)n(C[C@H](O)[C@H](O)[C@H](O)CO)c3cccc1c32 [Compound 21, 6,6-dimethyl-1-((2S,3S,4R)-2,3,4,5-tetrahydroxypentyl)-5,6-dihydro-4H-imidazo[4,5,1-ij]quinolin-2(1H)-one] | 4 µg/mL (≈ 11.9 µM)
CC1(C)CCn2c(=O)c(OC[C@H](O)CO)nc3cccc1c32 [Compound 16, (R)-2-(2,3-dihydroxypropoxy)-7,7-dimethyl-6,7-dihydro-3H,5H-pyrido[1,2,3-de]quinoxalin-3-one] | > 16 µg/mL
CC1(C)CCn2c(=O)n(CC(O)CO)c3cccc1c32 (stereo not drawn) [Compound 23, 1-(2,3-dihydroxypropyl)-6,6-dimethyl-5,6-dihydro-4H-imidazo[4,5,1-ij]quinolin-2(1H)-one] | > 16 µg/mL
Cc1cc2c3c(c1C)C(C)(C)CCn3c(=O)c(=O)n2CC(O)CO (stereo not drawn) [Compound 4, 1-(2,3-dihydroxypropyl)-7,7,8,9-tetramethyl-6,7-dihydro-1H,5H-pyrido[1,2,3-de]quinoxaline-2,3-dione] | > 16 µg/mL
CC1(C)CCn2c(=O)c(=O)n(C[C@@H](O)[C@H](O)[C@H](O)CO)c3cccc1c32 [Compound 8, 7,7-dimethyl-1-((2R,3S,4R)-2,3,4,5-tetrahydroxypentyl)-6,7-dihydro-1H,5H-pyrido[1,2,3-de]quinoxaline-2,3-dione] | > 16 µg/mL
Cc1cc2c3c(c1C)C(C)(C)CCn3c(=O)c(=O)n2CC(O)C(O)C(O)CO (stereo not drawn) [Compound 5, 7,7,8,9-tetramethyl-1-(2,3,4,5-tetrahydroxypentyl)-6,7-dihydro-1H,5H-pyrido[1,2,3-de]quinoxaline-2,3-dione] | 4 µg/mL (≈ 10.2 µM)
CC1(C)CCn2c(=O)n(C[C@@H](O)[C@H](O)CO)c3cccc1c32 [Compound 26, 6,6-dimethyl-1-((2R,3R)-2,3,4-trihydroxybutyl)-5,6-dihydro-4H-imidazo[4,5,1-ij]quinolin-2(1H)-one] | > 16 µg/mL
COC1O[C@H](Cn2c(=O)c(=O)n3c4c(cccc42)C(C)(C)CC3)[C@@H](O)[C@H]1O (stereo partly drawn) [Compound 11, 1-(((2R,3S,4R)-3,4-dihydroxy-5-methoxytetrahydrofuran-2-yl)methyl)-7,7-dimethyl-6,7-dihydro-1H,5H-pyrido[1,2,3-de]quinoxaline-2,3-dione] | > 16 µg/mL
COC1O[C@H](Cn2c(=O)n3c4c(cccc42)C(C)(C)CC3)[C@@H](O)[C@H]1O (stereo partly drawn) [Compound 25, 1-(((2R,3S,4R)-3,4-dihydroxy-5-methoxytetrahydrofuran-2-yl)methyl)-6,6-dimethyl-5,6-dihydro-4H-imidazo[4,5,1-ij]quinolin-2(1H)-one] | 2 µg/mL (≈ 5.74 µM)
CC1(C)CCn2c(=O)c(OC[C@H](O)[C@@H](O)CO)nc3cccc1c32 [Compound 13, 7,7-dimethyl-2-((2S,3S)-2,3,4-trihydroxybutoxy)-6,7-dihydro-3H,5H-pyrido[1,2,3-de]quinoxalin-3-one] | 16 µg/mL (≈ 47.9 µM)
CCOC(=O)Cn1cc(Cn2c(=O)n3c4c(cccc42)C(C)(C)CC3)nn1 [Compound 24b, Ethyl 2-(4-((6,6-dimethyl-2-oxo-5,6-dihydro-4H-imidazo[4,5,1-ij]quinolin-1(2H)-yl)methyl)-1H-1,2,3-triazol-1-yl)acetate] | 8 µg/mL (≈ 21.7 µM)

Tested on: Salmonella enterica
Assay: not given
Conditions: against the bacterial pathogen Salmonella enterica; literature value; cited from earlier work

SMILES | minimum inhibitory concentration (MIC)
Cc1cc2c3c(c1C)C(C)(C)CCn3c(=O)c(=O)n2C[C@H](O)[C@H](O)[C@H](O)CO (stereo in doubt) [Compound 2, 7,7,8,9-tetramethyl-1-((2S,3S,4R)-2,3,4,5-tetrahydroxypentyl)-6,7-dihydro-1H,5H-pyrido[1,2,3-de]quinoxaline-2,3-dione] | 12.4 µM (≈ 4.87 µg/mL)
